# Data as given in patent US20230085307A1, “PYRIDAZINONE COMPOUND AND HERBICIDE” (NISSAN CHEMICAL CORPORATION, priority 2019, published 2023).
# How the values were obtained:
# [1] = tested on: barnyard grass; assay: Test Example 3: herbicidal effect by foliage application, Wagner pot (Table 18, symbol H); type: in vivo, barnyard grass (Echinochloa crus-galli); details: amount of applied herbicide 221 g/ha
# Summary of the method: (§1)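 Plants were sown in alluvial soil held under 0.1–0.5 cm standing water and grown 14 days in a greenhouse at 25–30 °C. An emulsifiable formulation, water-diluted to the set dose, was then sprayed onto the foliage, and effects were scored three weeks later using previously defined criteria.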
# [2] = tested on: Chinese sprangletop; assay: Test Example 3: herbicidal effect by foliage application, Wagner pot (Table 18, symbol D); type: in vivo, chinese sprangletop (Leptochloa chinensis); details: amount of applied herbicide 221 g/ha
# Summary of the method: as §1
# [3] = tested on: rice flat sedge; assay: Test Example 3: herbicidal effect by foliage application, Wagner pot (Table 18, symbol E); type: in vivo, rice flat sedge (Cyperus iria); details: amount of applied herbicide 221 g/ha
# Summary of the method: as §1
# [4] = tested on: southern crabgrass; assay: Test Example 4: herbicidal effect by soil treatment (Table 19, symbol F); type: in vivo, southern crabgrass (Digitaria ciliaris); details: amount of applied herbicide 221 g/ha
# Summary of the method: (§2)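 Applied as a water-diluted emulsion, the compound was sprayed onto soil covering newly sown seeds. Evaluation came three weeks after application, in a greenhouse held at 25° C. to 30° C.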
# [5] = tested on: green foxtail; assay: Test Example 4: herbicidal effect by soil treatment (Table 19, symbol G); type: in vivo, green foxtail (Setaria viridis); details: amount of applied herbicide 221 g/ha
# Summary of the method: as §2
# [6] = tested on: barnyard grass; assay: Test Example 4: herbicidal effect by soil treatment (Table 19, symbol H); type: in vivo, barnyard grass (Echinochloa crus-galli); details: amount of applied herbicide 221 g/ha
# Summary of the method: as §2
# [7] = tested on: wild oat; assay: Test Example 4: herbicidal effect by soil treatment (Table 19, symbol I); type: in vivo, wild oat (Avena fatua); details: amount of applied herbicide 221 g/ha
# Summary of the method: as §2
# [8] = tested on: blackgrass; assay: Test Example 4: herbicidal effect by soil treatment (Table 19, symbol J); type: in vivo, blackgrass (Alopecurus myosuroides); details: amount of applied herbicide 221 g/ha
# Summary of the method: as §2
# [9] = tested on: Italian ryegrass; assay: Test Example 4: herbicidal effect by soil treatment (Table 19, symbol K); type: in vivo, Italian ryegrass (Lolium multiflorum); details: amount of applied herbicide 221 g/ha
# Summary of the method: as §2
# [10] = tested on: windgrass; assay: Test Example 4: herbicidal effect by soil treatment (Table 19, symbol L); type: in vivo, windgrass (Apera spica-venti); details: amount of applied herbicide 221 g/ha
# Summary of the method: as §2
# [11] = tested on: velvetleaf; assay: Test Example 4: herbicidal effect by soil treatment (Table 19, symbol M); type: in vivo, velvetleaf (Abutilon theophrasti); details: amount of applied herbicide 221 g/ha
# Summary of the method: as §2
# [12] = tested on: redroot pigweed; assay: Test Example 4: herbicidal effect by soil treatment (Table 19, symbol N); type: in vivo, redroot pigweed (Amaranthus retroflexus); details: amount of applied herbicide 221 g/ha
# Summary of the method: as §2
# [13] = tested on: lambsquarters; assay: Test Example 4: herbicidal effect by soil treatment (Table 19, symbol O); type: in vivo, lambsquarters (Chenopodium album); details: amount of applied herbicide 221 g/ha
# Summary of the method: as §2
# [14] = tested on: chickweed; assay: Test Example 4: herbicidal effect by soil treatment (Table 19, symbol P); type: in vivo, common chickweed (Stellaria media); details: amount of applied herbicide 221 g/ha
# Summary of the method: as §2
# [15] = tested on: persian speedwell; assay: Test Example 4: herbicidal effect by soil treatment (Table 19, symbol R); type: in vivo, Persian speedwell (Veronica persica); details: amount of applied herbicide 221 g/ha
# Summary of the method: as §2
# [16] = tested on: southern crabgrass; assay: Test Example 5: herbicidal effect by foliage application, plastic box (Table 20, symbol F); type: in vivo, southern crabgrass (Digitaria ciliaris); details: foliage application, 221 g/ha, evaluated three weeks after application
# Summary of the method: (§3)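 Sow seeds spot-wise in sterilized diluvial soil; cover with ~1.5 cm soil. Grow 14 days in greenhouse, 25° C. to 30° C. Spray foliage with emulsion diluted to predetermined amount. Rate effect after 3 weeks.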
# [17] = tested on: green foxtail; assay: Test Example 5: herbicidal effect by foliage application, plastic box (Table 20, symbol G); type: in vivo, green foxtail (Setaria viridis); details: foliage application, 221 g/ha, evaluated three weeks after application
# Summary of the method: as §3
# [18] = tested on: barnyard grass; assay: Test Example 5: herbicidal effect by foliage application, plastic box (Table 20, symbol H); type: in vivo, barnyard grass (Echinochloa crus-galli); details: foliage application, 221 g/ha, evaluated three weeks after application
# Summary of the method: as §3
# [19] = tested on: wild oat; assay: Test Example 5: herbicidal effect by foliage application, plastic box (Table 20, symbol I); type: in vivo, wild oat (Avena fatua); details: foliage application, 221 g/ha, evaluated three weeks after application
# Summary of the method: as §3
# [20] = tested on: blackgrass; assay: Test Example 5: herbicidal effect by foliage application, plastic box (Table 20, symbol J); type: in vivo, blackgrass (Alopecurus myosuroides); details: foliage application, 221 g/ha, evaluated three weeks after application
# Summary of the method: as §3
# [21] = tested on: Italian ryegrass; assay: Test Example 5: herbicidal effect by foliage application, plastic box (Table 20, symbol K); type: in vivo, Italian ryegrass (Lolium multiflorum); details: foliage application, 221 g/ha, evaluated three weeks after application
# Summary of the method: as §3
# [22] = tested on: windgrass; assay: Test Example 5: herbicidal effect by foliage application, plastic box (Table 20, symbol L); type: in vivo, windgrass (Apera spica-venti); details: foliage application, 221 g/ha, evaluated three weeks after application
# Summary of the method: as §3
# [23] = tested on: velvetleaf; assay: Test Example 5: herbicidal effect by foliage application, plastic box (Table 20, symbol M); type: in vivo, velvetleaf (Abutilon theophrasti); details: foliage application, 221 g/ha, evaluated three weeks after application
# Summary of the method: as §3
# [24] = tested on: redroot pigweed; assay: Test Example 5: herbicidal effect by foliage application, plastic box (Table 20, symbol N); type: in vivo, redroot pigweed (Amaranthus retroflexus); details: foliage application, 221 g/ha, evaluated three weeks after application
# Summary of the method: as §3
# [25] = tested on: lambsquarters; assay: Test Example 5: herbicidal effect by foliage application, plastic box (Table 20, symbol O); type: in vivo, lambsquarters (Chenopodium album); details: foliage application, 221 g/ha, evaluated three weeks after application
# Summary of the method: as §3
# [26] = tested on: chickweed; assay: Test Example 5: herbicidal effect by foliage application, plastic box (Table 20, symbol P); type: in vivo, common chickweed (Stellaria media); details: foliage application, 221 g/ha, evaluated three weeks after application
# Summary of the method: as §3
# [27] = tested on: persian speedwell; assay: Test Example 5: herbicidal effect by foliage application, plastic box (Table 20, symbol R); type: in vivo, Persian speedwell (Veronica persica); details: foliage application, 221 g/ha, evaluated three weeks after application
# Summary of the method: as §3
smiles,measurement,setting,value
Cc1ccc2sc(-c3ccc(C#N)cc3)c(-c3c(O)c(C)nn(C)c3=O)c2c1 [2-146],herbicidal effect on H: barnyard grass,[1],4 (Herbicidal rate of 70% or more and less than 90%)
same,herbicidal effect on D: Chinese sprangletop,[2],0 (Herbicidal rate of 5% or less (almost no effect))
same,herbicidal effect on E: rice flat sedge,[3],3 (Herbicidal rate of 40% or more and less than 70%)
same,"F: southern crabgrass, herbicidal effect rating",[4],0 (Herbicidal rate of 5% or less (almost no effect))
same,"G: green foxtail, herbicidal effect rating",[5],0 (Herbicidal rate of 5% or less (almost no effect))
same,"H: barnyard grass, herbicidal effect rating",[6],0 (Herbicidal rate of 5% or less (almost no effect))
same,"I: wild oat, herbicidal effect rating",[7],0 (Herbicidal rate of 5% or less (almost no effect))
same,"J: blackgrass, herbicidal effect rating",[8],0 (Herbicidal rate of 5% or less (almost no effect))
same,"K: Italian ryegrass, herbicidal effect rating",[9],0 (Herbicidal rate of 5% or less (almost no effect))
same,"L: windgrass, herbicidal effect rating",[10],0 (Herbicidal rate of 5% or less (almost no effect))
same,"M: velvetleaf, herbicidal effect rating",[11],0 (Herbicidal rate of 5% or less (almost no effect))
same,"N: redroot pigweed, herbicidal effect rating",[12],4 (Herbicidal rate of 70% or more and less than 90%)
same,"O: lambsquarters, herbicidal effect rating",[13],0 (Herbicidal rate of 5% or less (almost no effect))
same,"P: chickweed, herbicidal effect rating",[14],5 (Herbicidal rate of 90% or more (almost completely withered))
same,"R: persian speedwell, herbicidal effect rating",[15],5 (Herbicidal rate of 90% or more (almost completely withered))
same,herbicidal effect on F: southern crabgrass (criteria 0-5),[16],0 (Herbicidal rate of 5% or less (almost no effect))
same,herbicidal effect on G: green foxtail (criteria 0-5),[17],4 (Herbicidal rate of 70% or more and less than 90%)
same,herbicidal effect on H: barnyard grass (criteria 0-5),[18],4 (Herbicidal rate of 70% or more and less than 90%)
same,herbicidal effect on I: wild oat (criteria 0-5),[19],3 (Herbicidal rate of 40% or more and less than 70%)
same,herbicidal effect on J: blackgrass (criteria 0-5),[20],3 (Herbicidal rate of 40% or more and less than 70%)
same,herbicidal effect on K: Italian ryegrass (criteria 0-5),[21],4 (Herbicidal rate of 70% or more and less than 90%)
same,herbicidal effect on L: windgrass (criteria 0-5),[22],0 (Herbicidal rate of 5% or less (almost no effect))
same,herbicidal effect on M: velvetleaf (criteria 0-5),[23],2 (Herbicidal rate of 20% or more and less than 40%)
same,herbicidal effect on N: redroot pigweed (criteria 0-5),[24],5 (Herbicidal rate of 90% or more (almost completely withered))
same,herbicidal effect on O: lambsquarters (criteria 0-5),[25],3 (Herbicidal rate of 40% or more and less than 70%)
same,herbicidal effect on P: chickweed (criteria 0-5),[26],5 (Herbicidal rate of 90% or more (almost completely withered))
same,herbicidal effect on R: persian speedwell (criteria 0-5),[27],5 (Herbicidal rate of 90% or more (almost completely withered))
